According to article PMC3734177, “Design, Synthesis, Evaluation and Thermodynamics of 1-Substituted Pyridylimidazo[1,5-a]Pyridine Derivatives as Cysteine Protease Inhibitors” (PLoS ONE, 2013):
≈ marks a conversion by molar mass, not a printed value. Where “and” joins values, the source holds several entries; their conditions need not be identical. Identical values can stand only once. Like-named read-outs stand apart in the source and are kept apart here.

Key:
[1] = tested on: Staphylococcus aureus (ATCC-25923); experiment: MBC, sub cultivation from MIC plate; type: cell-based; conditions: ATCC25923, S. aureus
Description: (§1) After having determined the MICs, bacterial strains from the wells of the microtitre plate with no visible bacterial growth were removed for serial sub cultivation of 2 µl into another new microtitre plate containing 100 µl of broth per well and further incubated for 24 h. The lowest concentration with no visible growth was defined as MBC [28], indicating 99.5% killing of the original inoculum. The absorbance of each well was measured at a wavelength of 620 nm by Microplate Manager 4.0 (Bio-Rad laboratories) and compared with a blank. Solvent (DMSO) was used as a negative control. Three replicates were done for each compound and experiment was repeated two times.

[2] = tested on: Proteus vulgaris (ATCC-29905); experiment: MBC, sub cultivation from MIC plate; type: cell-based; conditions: ATCC29905, P. vulgaris
Description: as §1

[3] = tested on: Bacillus spp. (ATCC-14593); experiment: MBC, sub cultivation from MIC plate; type: cell-based; conditions: ATCC14593, Bacillus sp.
Description: as §1

[4] = tested on: Pseudomonas aeruginosa (ATCC-27853); experiment: MBC, sub cultivation from MIC plate; type: cell-based
Description: as §1

[5] = tested on: Escherichia coli (ATCC-25922); experiment: MBC, sub cultivation from MIC plate; type: cell-based; conditions: ATCC25922, E. coli
Description: as §1

[6] = molecular target: T1, papain (Carica papaya, UniProt P00784); experiment: Cysteine protease inhibitory activity, papain with Bz-DL-Arg-pNA substrate; type: biochemical; conditions: for Type of inhibition: Lineweaver–Burk plot; for IC50: papain
T1 construct: To solutions of active papain (final concentration: 0.05 mM); purchased Sigma Chemical Co., St. Louis, MO, USA
T1 sequence (P00784 134-345): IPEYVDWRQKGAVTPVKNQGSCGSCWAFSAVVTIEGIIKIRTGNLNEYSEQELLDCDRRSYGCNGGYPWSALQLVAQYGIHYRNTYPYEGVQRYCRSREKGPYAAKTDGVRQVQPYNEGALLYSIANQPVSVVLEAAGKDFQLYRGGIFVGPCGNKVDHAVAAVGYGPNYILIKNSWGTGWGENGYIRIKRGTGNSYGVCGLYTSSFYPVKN
Description: The capacity of the 1-pyridylimidazo[1,5-a]pyridine derivatives to inhibit cysteine proteases was tested using papain as the model enzyme. The proteolytic activity of the reaction mixtures was determined using Bz-DL-Arg-pNA as the chromogenic substrate. To solutions of active papain (final concentration: 0.05 mM) were added concentrated solutions of the different derivatives to final concentrations of 0.2 mM. […] The same procedure was used at 32°C and 42°C for thermodynamics studies. The kinetic parameters for the substrate hydrolysis were determined by measuring the initial rate of enzymatic activity. The inhibition constant Ki was determined by Dixon method and also by the Lineweaver–Burk equation. The Km value was calculated from the double-reciprocal equation by fitting the data into the computer software Origin 6.1. The Lineweaver–Burk plot was used to determine the types of inhibition. For the kinetic analysis and rate constant determinations, the assays were carried out in triplicate, and the average value was considered throughout this work.

[7] = molecular target: T1, papain; experiment: Thermodynamics analysis of papain inhibition (Van't Hoff); type: biochemical; conditions: Value at 37°C
Description: Free energy changes of inhibition of papain against 1- substituted pyridylimidazo[1,5-a] pyridine derivatives (ΔG) were determined by the equation, [drawing 1] (1)
Temperature dependence of the inhibition constants was used to determine the thermodynamic parameters. Changes in enthalpy (ΔH) were determined from the Van’t Hoff plots by using the equation, [drawing 2] (2)
Where ΔH is enthalpy change, R is gas constant, ΔS is entropy change and T is the absolute temperature. The entropy change was obtained from the equation, [drawing 3] (3)

[8] = tested on: Staphylococcus aureus (ATCC-25923); experiment: MIC, micro dilution method; type: cell-based; conditions: ATCC25923, S. aureus
Description: (§2) The disk diffusion method was used for the preliminary antibacterial evaluation of 1-pyridylimidazo[1,5-a]pyridine derivatives. The MIC50 of these derivatives, showing inhibition in the preliminary tests, were further determined by the microtitre plate technique using micro dilution method. In brief, the bacterial strains (S. aureus, P. vulgaris, Group D Streptococci, Bacillus sp., E. coli, P. aeruginosa and S. morganii)) were grown and diluted to 2×10^5 colony-forming units (CFU)/ml in sodium phosphate buffer (SPB) containing 0.03% Luria–Bertani (LB) broth. The synthesized derivatives were dissolved in DMSO and their serial dilution was performed in 50 µL of LB medium in 96-well microtitre plate to achieve the required concentrations (0.1–10 µg/ml) with bacterial inoculums (5×10^4 CFU per well). DMSO was taken as negative control and Ceftriaxone and clotrimazole were taken as positive control. After incubation at 37°C overnight, the MICs were taken as the lowest inhibitor concentration at which the bacterial growth was inhibited. The average of three values was calculated and that was the MIC for the test material and bacterial strain. […]

[9] = tested on: Proteus vulgaris (ATCC-29905); experiment: MIC, micro dilution method; type: cell-based; conditions: ATCC29905, P. vulgaris
Description: as §2

[10] = tested on: Bacillus spp. (ATCC-14593); experiment: MIC, micro dilution method; type: cell-based; conditions: ATCC14593; Bacillus sp.
Description: as §2

[11] = tested on: Pseudomonas aeruginosa (ATCC-27853); experiment: MIC, micro dilution method; type: cell-based; conditions: ATCC27853
Description: as §2

[12] = tested on: Escherichia coli (ATCC-25922); experiment: MIC, micro dilution method; type: cell-based; conditions: ATCC25922, E. coli
Description: as §2

[13] = tested on: Bacillus spp. (ATCC-14593); experiment: MIC, micro dilution method; type: cell-based; conditions: ATCC14593; Bacillus sp.; remark: listed apart in the source
[14] = tested on: Serratia morganii (ATCC- 31665); experiment: MIC, micro dilution method; type: cell-based; conditions: ATCC31665
Description: (§3) The disk diffusion method was used for the preliminary antibacterial evaluation of 1-pyridylimidazo[1,5-a]pyridine derivatives. The MIC50 of these derivatives, showing inhibition in the preliminary tests, were further determined by the microtitre plate technique using micro dilution method. In brief, the bacterial strains (S. aureus, P. vulgaris, Group D Streptococci, Bacillus sp., E. coli, P. aeruginosa and S. morganii)) were grown and diluted to 2×10^5 colony-forming units (CFU)/ml in sodium phosphate buffer (SPB) containing 0.03% Luria–Bertani (LB) broth. The synthesized derivatives were dissolved in DMSO and their serial dilution was performed in 50 µL of LB medium in 96-well microtitre plate to achieve the required concentrations (0.1–10 µg/ml) with bacterial inoculums (5×10^4 CFU per well). DMSO was taken as negative control and Ceftriaxone and clotrimazole were taken as positive control. After incubation at 37°C overnight, the MICs were taken as the lowest inhibitor concentration at which the bacterial growth was inhibited. The average of three values was calculated and that was the MIC for the test material and bacterial strain.
(§4) For the agar plate count method, 25 µL aliquots of bacteria at 1×10^5 CFU/ml in SPB containing 0.03% LB broth were incubated with 25 µL of diluted compounds for 2 h at 37°C. The mixtures of bacteria and compounds were serially diluted 10-fold with SPB and plated on LB plates that were incubated at 37°C overnight. Bacterial colonies were enumerated the following day.

[15] = tested on: Group D Streptococci (ATCC-12959); experiment: MIC, micro dilution method; type: cell-based
Description: as §3, §4

[16] = tested on: Serratia morganii (ATCC- 31665); experiment: MBC, sub cultivation from MIC plate; type: cell-based
Description: as §1

[17] = tested on: Group D Streptococci (ATCC-12959); experiment: MBC, sub cultivation from MIC plate; type: cell-based
Description: as §1

Compound | MBC ([1]; read-out: MBC50) [µg/mL] | MBC ([1]; read-out: MBC90) [µg/mL] | MBC ([2]; read-out: MBC50) [µg/mL] | MBC ([2]; read-out: MBC90) [µg/mL] | MBC ([3]; read-out: MBC50) [µg/mL] | MBC ([3]; read-out: MBC90) [µg/mL] | MBC ([4]; ATCC27853, read-out: MBC50) [µg/mL] | MBC ([4]; ATCC27853, read-out: MBC90) [µg/mL] | MBC ([5]; read-out: MBC50) [µg/mL] | MBC ([5]; read-out: MBC90) [µg/mL] | Ki ([6]; 32°C) [µM] | Ki ([6]; 37°C) [µM] | Ki ([6]; 42°C) [µM] | Type of inhibition [6] | IC50 [6] [µM] | ΔG (free energy of binding) [7] | ΔS (entropy change) [7] | MIC50 [8] [µg/mL] | MIC90 [8] [µg/mL] | MIC50 [9] [µg/mL] | further results
COc1ccc(-c2nc(-c3ccccn3)c3ccccn23)cc1 [Compound 3b, 1-(2-pyridyl)-3-(4-methoxyphenyl) imidazo[1,5-a]pyridine] | 2.3 (≈ 7.63 µM) | 4.5 (≈ 14.9 µM) | 1.6 (≈ 5.31 µM) | 3.2 (≈ 10.6 µM) | 1.7 (≈ 5.64 µM) | 3.2 (≈ 10.6 µM) | 2.1 (≈ 6.97 µM) | 4 (≈ 13.3 µM) | 1.9 (≈ 6.3 µM) | 2.9 (≈ 9.62 µM) | 26.2 | 23.2 | 21.1 | Competitive | 21.2 | −6.55 Kcalmol^−1 and −6.55(±0.33) Kcalmol^−1 | 71.4 (±2.46) Jmol-K^−1 | 1 (≈ 3.32 µM) | 1.9 (≈ 6.3 µM) | 0.8 (≈ 2.65 µM) | ΔH (enthalpy change) ([7]; Van't Hoff plot): −5.3(±0.80) KJmol^−1; MIC90 [9]: 1.5 µg/mL (≈ 4.98 µM); MIC50 [10]: 0.9 µg/mL (≈ 2.99 µM); MIC50 [11]: 1 µg/mL (≈ 3.32 µM); MIC90 [11]: 1.8 µg/mL (≈ 5.97 µM); MIC50 [12]: 1 µg/mL (≈ 3.32 µM); MIC90 [12]: 1.8 µg/mL (≈ 5.97 µM); MIC90 [13]: 1.7 µg/mL (≈ 5.64 µM)
Clc1ccccc1-c1nc(-c2ccccn2)c2ccccn12 [Compound 3c, 1-(2-pyridyl)-3-(2-chlorophenyl) imidazo[1,5-a]pyridine] | 2.4 (≈ 7.85 µM) | 4.7 (≈ 15.4 µM) | 2.2 (≈ 7.19 µM) | 4.3 (≈ 14.1 µM) | 1.9 (≈ 6.21 µM) | 3.8 (≈ 12.4 µM) | 2.4 (≈ 7.85 µM) | 4 (≈ 13.1 µM) | 1.2 (≈ 3.92 µM) | 2.3 (≈ 7.52 µM) | 94.1 | 90 | 85.6 | Non -Competitive | 94.5 | −5.71 Kcalmol^−1 and −5.71(±0.27) Kcalmol^−1 | 69.88 (±2.65) Jmol-K^−1 | 1.2 (≈ 3.92 µM) | 2.4 (≈ 7.85 µM) | 1 (≈ 3.27 µM) | MIC50 [14]: 1 µg/mL (≈ 3.27 µM); MIC90 [14]: 1.9 µg/mL (≈ 6.21 µM); MIC50 [15]: 0.9 µg/mL (≈ 2.94 µM); MIC90 [15]: 1.7 µg/mL (≈ 5.56 µM); MBC ([16]; ATCC31665, read-out: MBC50): 2.1 µg/mL (≈ 6.87 µM); MBC ([16]; ATCC31665, read-out: MBC90): 4.1 µg/mL (≈ 13.4 µM); MBC ([17]; read-out: MBC50): 1.8 µg/mL (≈ 5.89 µM); MBC ([17]; read-out: MBC90): 3.4 µg/mL (≈ 11.1 µM); MIC90 [9]: 1.9 µg/mL (≈ 6.21 µM); MIC50 [10]: 0.9 µg/mL (≈ 2.94 µM); MIC50 [11]: 1.2 µg/mL (≈ 3.92 µM); MIC90 [11]: 2.2 µg/mL (≈ 7.19 µM); MIC50 [12]: 0.6 µg/mL (≈ 1.96 µM); MIC90 [12]: 1.1 µg/mL (≈ 3.6 µM); MIC90 [13]: 1.7 µg/mL (≈ 5.56 µM)
